This note sets out measurements from US9012651B2, “TRPV3 modulators” (AbbVie Inc., priority 2011, dated 2015).

Structures are written as SMILES.

Sequence of human TRPV3 receptors (Q8NET8 whole entry): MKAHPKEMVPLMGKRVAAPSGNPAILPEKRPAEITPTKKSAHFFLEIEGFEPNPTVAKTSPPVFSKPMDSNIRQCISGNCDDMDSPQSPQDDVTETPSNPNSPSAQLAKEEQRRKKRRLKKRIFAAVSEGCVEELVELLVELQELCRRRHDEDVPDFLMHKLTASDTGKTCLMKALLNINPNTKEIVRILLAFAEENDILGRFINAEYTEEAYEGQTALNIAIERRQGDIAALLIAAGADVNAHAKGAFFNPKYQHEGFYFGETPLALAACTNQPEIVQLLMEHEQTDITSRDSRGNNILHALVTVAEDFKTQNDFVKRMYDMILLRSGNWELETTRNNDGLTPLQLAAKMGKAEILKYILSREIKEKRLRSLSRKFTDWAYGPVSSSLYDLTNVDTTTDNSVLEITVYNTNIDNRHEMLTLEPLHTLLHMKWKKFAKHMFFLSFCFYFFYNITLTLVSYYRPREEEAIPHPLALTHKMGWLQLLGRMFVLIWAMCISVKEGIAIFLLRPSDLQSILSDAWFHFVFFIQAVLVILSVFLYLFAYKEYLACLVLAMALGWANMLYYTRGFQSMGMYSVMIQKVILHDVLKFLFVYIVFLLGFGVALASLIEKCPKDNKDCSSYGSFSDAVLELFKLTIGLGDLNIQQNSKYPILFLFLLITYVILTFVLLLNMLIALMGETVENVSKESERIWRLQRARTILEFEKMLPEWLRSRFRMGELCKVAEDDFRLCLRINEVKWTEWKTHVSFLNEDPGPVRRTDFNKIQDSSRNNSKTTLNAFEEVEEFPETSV

This test has as its target human TRPV3 receptors (Homo sapiens (Human), UniProt Q8NET8). The test can be described thus: Calcium flux assay (FLIPR TETRA), inhibition of the 2-APB response. It is filed as cell-based. The conditions noted are these: recombinant HEK293 cells stably expressing TRPV3, Calcium-4 dye, 2-APB at its EC80. As for the experimental part:
(i) In Vitro Methods-Calcium Flux Assays:
Experiments were conducted using the FLIPR^TETRA®. On the day prior to the experiment, recombinant HEK293 cells that stably express human and mouse TRPV3 were removed from tissue culture flasks and plated in growth medium at 20,000 cells/well into black-walled clear-bottom 384-well Biocoat™ poly-D-lysine assay plates (BD Biosciences, Bedford, Mass.) using a Multidrop® dispenser (ThermoScientific, Waltham, Mass.). […] Cells were incubated for 90-120 minutes in the dark. Compounds were dissolved in DMSO to prepare a 10 mM stock solution. The intensity of the fluorescence was captured and digitally transferred to an interfaced PC. The peak increase in fluorescence over baseline (relative fluorescence units) was calculated and expressed as the percentage of the maximal 2-APB (2-aminoethoxyldiphenyl borate) response (in the absence of compound).
For orientation: Calcium assays in cells follow changes in intracellular calcium, usually with a dye or a luminescent sensor.
In general, IC50 refers to the concentration that gives 50% inhibition. On to `CC(C)[C@H](CO)NCc1nc(-c2ccc(F)c(Cl)c2)ccc1F` [Example 294, (2R)-2-({[6-(3-chloro-4-fluorophenyl)-3-fluoropyridin-2-yl]methyl}amino)-3-methylbutan-1-ol], for which the IC50 amounted to 120 nM. `CC[C@@H](NCc1nc(-c2ccc(C(F)(F)F)nc2)ccc1F)C(C)O` (stereo partly drawn) [Example 115, (3R)-3-({[5-fluoro-6′-(trifluoromethyl)-2,3′-bipyridin-6-yl]methyl}amino)pentan-2-ol]: the concentration for half-maximal inhibition (IC50) was found to be 510 nM. The result for `C[C@@H](O)[C@@H](CO)NCc1ccnc(-c2ccc(C(F)(F)F)cn2)n1` [Example 198, (2R,3R)-2-[({2-[5-(trifluoromethyl)pyridin-2-yl]pyrimidin-4-yl}methyl)amino]butane-1,3-diol] reads more than 20000 nM. For the compound `CC(C)[C@H](CO)NCc1nc(C2CCC3(CC2)OCCO3)ccc1F` [Example 214, (2R)-2-({[6-(1,4-dioxaspiro[4.5]dec-8-yl)-3-fluoropyridin-2-yl]methyl}amino)-3-methylbutan-1-ol], the IC50 was found to be 8280 nM. The result for `CC(C)[C@H](CO)NCc1nc(-c2ccc3sccc3c2)ccc1F` [Example 255, (2R)-2-({[6-(1-benzothiophen-5-yl)-3-fluoropyridin-2-yl]methyl}amino)-3-methylbutan-1-ol] reads 230 nM.

For `CC(O)C(C)NCc1ccnc(-c2ccc(C(F)(F)F)nc2)n1` (stereo not drawn) [Example 190, 3-[({2-[6-(trifluoromethyl)pyridin-3-yl]pyrimidin-4-yl}methyl)amino]butan-2-ol], the IC50 is 8150 nM.

On to `OCC1(NCc2ccnc(-c3ccc(C(F)(F)F)cc3)n2)CCCC1` [Example 133, {1-[({2-[4-(trifluoromethyl)phenyl]pyrimidin-4-yl}methyl)amino]cyclopentyl}methanol], for which the concentration for half-maximal inhibition (IC50) is 9320 nM. For `C[C@@H](O)[C@H](CO)NCc1ccnc(-c2ccc(C(F)(F)F)cc2)n1` [Example 152, (2S,3R)-2-[({2-[4-(trifluoromethyl)phenyl]pyrimidin-4-yl}methyl)amino]butane-1,3-diol], the half-maximal inhibitory concentration (IC50) is more than 20000 nM. Next, `CC(C)[C@H](CO)NCc1nc(-c2cc3ccccc3n2C)ccc1F` [Example 249, (2R)-2-({[3-fluoro-6-(1-methyl-1H-indol-2-yl)pyridin-2-yl]methyl}amino)-3-methylbutan-1-ol]: 350 nM. Next, `CC(C)[C@H](CO)NCc1nc(N2CCc3c(cccc3C(F)(F)F)C2)ccc1F` [Example 102, (2R)-2-[({3-fluoro-6-[5-(trifluoromethyl)-3,4-dihydroisoquinolin-2(1H)-yl]-pyridin-2-yl}methyl)amino]-3-methylbutan-1-ol]: 350 nM; `CC(C)[C@H](CO)NCc1nc(C2=CCC(F)(F)CC2)ccc1F` [Example 224, (2R)-2-({[6-(4,4-difluorocyclohex-1-en-1-yl)-3-fluoropyridin-2-yl]methyl}amino)-3-methylbutan-1-ol]: 140 nM.

As for `CC(c1ccccc1)c1ccc(F)c(CN[C@@H](CO)C(C)C)n1` (stereo partly drawn) [Example 127, (2R)-2-({[3-fluoro-6-(1-phenylethyl)pyridin-2-yl]methyl}amino)-3-methylbutan-1-ol], the IC50 is 1440 nM. Next, `CC(C)[C@H](CO)NCc1nc(-c2ccccc2F)ccc1F` [Example 13, (2R)-2-({[3-fluoro-6-(2-fluorophenyl)pyridin-2-yl]methyl}amino)-3-methylbutan-1-ol]: 1120 nM; `CC(O)C(C)NCc1nc(-c2ccc(C(F)(F)F)cc2)ccc1F` (stereo not drawn) [Example 86, 3-[({3-fluoro-6-[4-(trifluoromethyl)phenyl]pyridin-2-yl}methyl)amino]butan-2-ol]: 300 nM. The result for `C[C@H](O)CNCc1ccnc(-c2ccc(C(F)(F)F)cc2)n1` [Example 180, (2S)-1-[({2-[4-(trifluoromethyl)phenyl]pyrimidin-4-yl}methyl)amino]propan-2-ol] reads more than 20000 nM; that for `CC(C)(C)[C@H](CO)NCc1ccnc(-c2ccc(C(F)(F)F)cc2)n1` [Example 147, (2R)-3,3-dimethyl-2-[({2-[4-(trifluoromethyl)phenyl]pyrimidin-4-yl}methyl)amino]butan-1-ol], 6430 nM; that for `OC[C@H](NCc1nc(-c2ccc(C(F)(F)F)nc2)ccc1F)C1CCCCC1` [Example 88, (2R)-2-cyclohexyl-2-({[5-fluoro-6′-(trifluoromethyl)-2,3′-bipyridin-6-yl]methyl}amino)ethanol], 570 nM. The result for `CC[C@H](CO)NCc1ccnc(-c2ccc(S(=O)(=O)C(F)(F)F)cc2)n1` [Example 209, (2R)-2-{[(2-{4-[(trifluoromethyl)sulfonyl]phenyl}pyrimidin-4-yl)methyl]amino}butan-1-ol] reads 1470 nM; that for `CC(C)[C@H](CO)NCc1nc(-c2cc3c(OCc4ccccc4)cccc3n2C(=O)OC(C)(C)C)ccc1F` [Example 259, tert-butyl 4-(benzyloxy)-2-[5-fluoro-6-({[(2R)-1-hydroxy-3-methylbutan-2-yl]amino}methyl)pyridin-2-yl]-1H-indole-1-carboxylate], 520 nM.

On to `CC(C)[C@H](CO)NCc1nc(C2=CCCCC2)ccc1F` [Example 126, (2R)-2-({[6-(cyclohex-1-en-1-yl)-3-fluoropyridin-2-yl]methyl}amino)-3-methylbutan-1-ol], for which the IC50 stood at 740 nM. The result for `C[C@@H](O)[C@@H](CO)NCc1ccnc(-c2ccc(C(F)(F)F)cc2)n1` [Example 150, (2R,3R)-2-[({2-[4-(trifluoromethyl)phenyl]pyrimidin-4-yl}methyl)amino]butane-1,3-diol] reads 3820 nM.

Regarding `CC(C)[C@H](CO)NCc1nc(C2=CCC(C(F)(F)F)CC2)ccc1F` (stereo partly drawn) [Example 223, (2R)-2-[({3-fluoro-6-[4-(trifluoromethyl)cyclohex-1-en-1-yl]pyridin-2-yl}methyl)amino]-3-methylbutan-1-ol], the concentration for half-maximal inhibition (IC50) stood at 80 nM. The result for `OC[C@H](NCc1ccnc(-c2ccc(C(F)(F)F)nc2)n1)C1CC1` [Example 188, (2R)-2-cyclopropyl-2-[({2-[6-(trifluoromethyl)pyridin-3-yl]pyrimidin-4-yl}methyl)amino]ethanol] reads more than 20000 nM; that for `OC[C@H](NCc1ccnc(-c2ccc(C(F)(F)F)cn2)n1)C1CC1` [Example 196, (2R)-2-cyclopropyl-2-[({2-[5-(trifluoromethyl)pyridin-2-yl]pyrimidin-4-yl}methyl)amino]ethanol], more than 20000 nM; that for `CC(=O)c1cccc(-c2ccc(F)c(CN[C@@H](CO)C(C)C)n2)c1` [Example 40, 1-{3-[5-fluoro-6-({[(2R)-1-hydroxy-3-methylbutan-2-yl]amino}methyl)pyridin-2-yl]phenyl}ethanone], 1400 nM. For the compound `C[C@@H](O)[C@@H](CO)NCc1ccnc(-c2ccc(S(=O)(=O)C(F)(F)F)cc2)n1` [Example 212, (2R,3R)-2-{[(2-{4-[(trifluoromethyl)sulfonyl]phenyl}pyrimidin-4-yl)methyl]amino}butane-1,3-diol], the half-inhibitory concentration (IC50) turned out to be 2530 nM.

`Cc1ccc(S(=O)(=O)C(F)(F)F)cc1-c1ccc(F)c(CN[C@@H](CO)C(C)C)n1` [Example 59, (2R)-2-{[(3-fluoro-6-{2-methyl-5-[(trifluoromethyl)sulfonyl]phenyl}pyridin-2-yl)methyl]amino}-3-methylbutan-1-ol]: the concentration for half-maximal inhibition (IC50) is 630 nM. The result for `CC(C)[C@H](CO)NCc1cccc(C#Cc2ccc(F)cc2F)n1` [Example 284, (2R)-2-[({6-[(2,4-difluorophenyl)ethynyl]pyridin-2-yl}methyl)amino]-3-methylbutan-1-ol] reads 520 nM. Next, `OC1(CNCc2ccnc(-c3ccc(C(F)(F)F)cc3)n2)CCCCC1` [Example 178, 1-{[({2-[4-(trifluoromethyl)phenyl]pyrimidin-4-yl}methyl)amino]methyl}cyclohexanol]: more than 20000 nM. The result for `CC(C)[C@H](CO)NCc1nc(N2Cc3cccc(Cl)c3C2)ccc1F` [Example 95, (2R)-2-({[6-(4-chloro-1,3-dihydro-2H-isoindol-2-yl)-3-fluoropyridin-2-yl]methyl}amino)-3-methylbutan-1-ol] reads 340 nM. Consider `OC1(CNCc2ccnc(-c3ccc(C(F)(F)F)cc3)n2)CCCC1` [Example 177, 1-{[({2-[4-(trifluoromethyl)phenyl]pyrimidin-4-yl}methyl)amino]methyl}cyclopentanol], for which the IC50 was more than 20000 nM. The result for `OC[C@H](NCc1nc(-c2ccc(C(F)(F)F)cc2)ccc1F)C1CCCCC1` [Example 84, (2R)-2-cyclohexyl-2-[({3-fluoro-6-[4-(trifluoromethyl)phenyl]pyridin-2-yl}methyl)amino]ethanol] reads 700 nM; that for `OCC1(NCc2cccc(-c3ccc(F)c(Cl)c3)n2)CCCC1` [Example 266, [1-({[6-(3-chloro-4-fluorophenyl)pyridin-2-yl]methyl}amino)cyclopentyl]methanol], 390 nM. Next, `CC(C)[C@H](CO)NCc1nc(N2CCC(F)(F)CC2)ccc1F` [Example 92, (2R)-2-({[6-(4,4-difluoropiperidin-1-yl)-3-fluoropyridin-2-yl]methyl}amino)-3-methylbutan-1-ol]: 960 nM; `CC(C)[C@H](CO)NCc1nc(-c2cc(C(F)(F)F)nn2C)ccc1F` [Example 291, (2R)-2-[({3-fluoro-6-[1-methyl-3-(trifluoromethyl)-1H-pyrazol-5-yl]pyridin-2-yl}methyl)amino]-3-methylbutan-1-ol]: 790 nM; `CC1CCC(c2ccc(F)c(CN[C@@H](CO)C(C)C)n2)CC1` (stereo partly drawn) [Example 200, (2R)-2-({[3-fluoro-6-(4-methylcyclohexyl)pyridin-2-yl]methyl}amino)-3-methylbutan-1-ol]: 1030 nM.
